Patent EP1925205A1, “Plant propagation material treatment nematicides” (priority 2006, dated 2008)
Where “and” joins values, the source holds several entries; their conditions need not be identical. Equal values may be shown once. Read-outs that look alike come from different tables or passages of the source.

How the values were obtained:
Type in all cases: in vivo, Meloidogyne incognita
[1] = test system: M. incognita; details: for Efficacy (%): DS formulation, inoculated 14 days after sowing, galling 28 days after inoculation; for average rating (gall rating, score 0.1-7): tomato, untreated control 4.6
[2] = test system: Meloidogyne spp.; test: General statement of effectiveness against nematodes by plant propagation material treatment
[3] = test system: M. incognita; test: Example 5: nematode control by tomato seed treatment, root galling (index adapted from Zeck); details: for Efficacy (%): tomato seeds, DS formulation, inoculated 14 days after sowing, galling 28 days after inoculation
[4] = test system: M. incognita; details: for Efficacy (%): DS formulation, inoculated 14 days after sowing, galling 28 days after inoculation; for average rating (gall rating, score 0.1-7): tomato, untreated control 4.1
[5] = test system: M. incognita; test: Example 6: nematode control by cotton seed treatment, root galling (index adapted from Zeck); details: for Efficacy (%): cotton seeds, DS formulation, inoculated 14 days after sowing, galling 28 days after inoculation; for average rating (gall rating, score 0.1-7): cotton, untreated control 2.0
[6] = test system: M. incognita; test: Example 1: nematode control by tomato seed treatment, root galling (index adapted from Zeck), two exposure timings; details: for Efficacy (%) at the two-week exposure / Efficacy (%) at the four-week exposure: tomato seeds, DS formulation, galling 28 days after inoculation; for Efficacy (%) at the two-week exposure: inoculated 14 days after sowing, 6000 eggs; for Efficacy (%) at the four-week exposure: inoculated 28 days after sowing, 9000 eggs; for average rating (gall rating, score 0.1-7): tomato
[7] = test system: M. incognita; test: Example 4: nematode control by tomato seed treatment, root galling (index adapted from Zeck); details: for Efficacy (%) / germination of treated seeds: tomato seeds; for Efficacy (%): Methiocarb FS500, Thiodicarb DS, inoculated 14 days after sowing, galling 28 days after inoculation; for germination of treated seeds: FS500 formulation; for average rating (gall rating, score 0.1-7): tomato, untreated control 4.3
[8] = tomato seeds, 0.03 mg a.i./seed
[9] = tomato seeds, 0.01 mg a.i./seed
[10] = 1 mg a.i./seed, inoculated at 14 days after sowing, untreated control 3.5
[11] = 1 mg a.i./seed, inoculated at 28 days after sowing, untreated control 2.9

CNC(=O)O/N=C/C(C)(C)SC [Aldicarb]
Efficacy (%) [1, 8]: 5.8% | Efficacy (%) ([1]; tomato seeds, 0.1 mg a.i./seed): 5.8% | Efficacy (%) ([1]; tomato seeds, 0.3 mg a.i./seed): 11.2% | Efficacy (%) ([1]; tomato seeds, 1 mg a.i./seed): 16.7% | average rating (gall rating, score 0.1-7) ([1]; 1 mg /seed): 3.8 | effective against Meloidogyne spp., for example, Meloidogyne incognita [2]: effective

CCCCNC(=O)n1c(NC(=O)OC)nc2ccccc21 [Benomyl]
Efficacy (%) ([3]; 0.1 mg a.i./seed): 0% | Efficacy (%) ([3]; 0.3 mg a.i./seed): 2.0% | Efficacy (%) ([3]; 1 mg a.i./seed): 0% | average rating (gall rating, score 0.1-7) ([3]; tomato, 1 mg a.i./seed, untreated control 4.2): The untreated control plants have an average rating of 4.2. Benomyl at 1 mg a.i. /seed is also rated at 4.2.

CCOP(=O)(SC(C)CC)SC(C)CC (stereo not drawn) [Cadusafos]
germination of treated seeds ([4]; tomato seeds, 1 mg a.i./seed): did not germinate | Efficacy (%) [4, 9]: 0% | Efficacy (%) [4, 8]: 0% | Efficacy (%) ([4]; tomato seeds, 0.1 mg a.i./seed): 2.0% | Efficacy (%) ([4]; tomato seeds, 0.3 mg a.i./seed): 14.3% | average rating (gall rating, score 0.1-7) ([4]; 0.3 mg /seed): 3.5 | Efficacy (%) ([5]; 0.01 mg a.i./seed): 0% | Efficacy (%) ([5]; 0.03 mg a.i./seed): 0% | Efficacy (%) ([5]; 0.1 mg a.i./seed): 8.3% | Efficacy (%) ([5]; 0.3 mg a.i./seed): 77.5% | Efficacy (%) ([5]; 1 mg a.i./seed): 86.7% | average rating (gall rating, score 0.1-7) ([5]; 0.3 mg /seed): 0.5 | average rating (gall rating, score 0.1-7) ([5]; 1 mg a.i./seed): 0.3 | effective against Meloidogyne spp., for example, Meloidogyne incognita [2]: effective

CCOP(=S)(OCC)Oc1nc(Cl)c(Cl)cc1Cl [Chlorpyrifos]
Efficacy (%) [4, 9]: 0% | Efficacy (%) [4, 8]: 0% | Efficacy (%) ([4]; tomato seeds, 0.1 mg a.i./seed): 0% | Efficacy (%) ([4]; tomato seeds, 0.3 mg a.i./seed): 0% | Efficacy (%) ([4]; tomato seeds, 1 mg a.i./seed): 0% | average rating (gall rating, score 0.1-7) ([4]; 1 mg /seed): 4.3

CCOP(=S)(OCC)Oc1cc(C)nc(C(C)C)n1 [Diazinon]
Efficacy (%) [4, 9]: 0% | Efficacy (%) [4, 8]: 0% | Efficacy (%) ([4]; tomato seeds, 0.1 mg a.i./seed): 0% | Efficacy (%) ([4]; tomato seeds, 0.3 mg a.i./seed): 0% | Efficacy (%) ([4]; tomato seeds, 1 mg a.i./seed): 0% | average rating (gall rating, score 0.1-7) ([4]; 1 mg /seed): 4.2

CCOP(=S)(OCC)Oc1ccc(Cl)cc1Cl [Dichlofenthion]
Efficacy (%) [4, 9]: 0% | Efficacy (%) [4, 8]: 0% | Efficacy (%) ([4]; tomato seeds, 0.1 mg a.i./seed): 0% | Efficacy (%) ([4]; tomato seeds, 0.3 mg a.i./seed): 0% | Efficacy (%) ([4]; tomato seeds, 1 mg a.i./seed): 0% | average rating (gall rating, score 0.1-7) ([4]; 1 mg /seed): 4.7

CNC(=O)CSP(=S)(OC)OC [Dimethoate]
Efficacy (%) [4, 9]: 0% | Efficacy (%) [4, 8]: 2.0% | Efficacy (%) ([4]; tomato seeds, 0.1 mg a.i./seed): 2.0% | Efficacy (%) ([4]; tomato seeds, 0.3 mg a.i./seed): 0% | Efficacy (%) ([4]; tomato seeds, 1 mg a.i./seed): 0% | average rating (gall rating, score 0.1-7) ([4]; 1 mg /seed): 4.3

CCCSP(=O)(OCC)SCCC [Ethoprofos, Ethoprophos]
germination of treated seeds ([1]; tomato seeds, 1 mg a.i./seed): did not germinate | Efficacy (%) [1, 8]: 4.0% | Efficacy (%) ([1]; tomato seeds, 0.1 mg a.i./seed): 2.2% | Efficacy (%) ([1]; tomato seeds, 0.3 mg a.i./seed): 2.2% | average rating (gall rating, score 0.1-7) ([1]; 0.3 mg /seed): 4.5

CCOP(=S)(OCC)Oc1ccc([S+](C)[O-])cc1 (stereo not drawn) [Fensulfothion]
Efficacy (%) [4, 9]: 0% | Efficacy (%) [4, 8]: 2.0% | Efficacy (%) ([4]; tomato seeds, 0.1 mg a.i./seed): 0% | Efficacy (%) ([4]; tomato seeds, 0.3 mg a.i./seed): 0% | Efficacy (%) ([4]; tomato seeds, 1 mg a.i./seed): 20.4% | average rating (gall rating, score 0.1-7) ([4]; 1 mg /seed): 3.3 | effective against Meloidogyne spp., for example, Meloidogyne incognita [2]: effective

CCOP(=O)(SC(C)CC)N1CCSC1=O (stereo not drawn) [Fosthiazate]
effective against Meloidogyne spp., for example, Meloidogyne incognita [2]: effective | Efficacy (%) at the two-week exposure ([6]; 0.03 mg a.i./seed): 0% | Efficacy (%) at the four-week exposure ([6]; 0.03 mg a.i./seed): 0% | Efficacy (%) at the two-week exposure ([6]; 0.1 mg a.i./seed): 40% | Efficacy (%) at the four-week exposure ([6]; 0.1 mg a.i./seed): 0% | Efficacy (%) at the two-week exposure ([6]; 0.3 mg a.i./seed): 28.6% | Efficacy (%) at the four-week exposure ([6]; 0.3 mg a.i./seed): 10.9% | Efficacy (%) at the two-week exposure ([6]; 1 mg a.i./seed): 59% and 59.4% | Efficacy (%) at the four-week exposure ([6]; 1 mg a.i./seed): 40% | average rating (gall rating, score 0.1-7) [6, 10]: 1.4 | average rating (gall rating, score 0.1-7) [6, 11]: 1.8

CCOP(=S)(OCC)Oc1nc(Cl)n(C(C)C)n1 [Isazofos]
Efficacy (%) [1, 8]: 4.0% | Efficacy (%) ([1]; tomato seeds, 0.1 mg a.i./seed): 2.2% | Efficacy (%) ([1]; tomato seeds, 0.3 mg a.i./seed): 34.8% | Efficacy (%) ([1]; tomato seeds, 1 mg a.i./seed): 87.0% | average rating (gall rating, score 0.1-7) ([1]; 1 mg /seed): 0.6 | effective against Meloidogyne spp., for example, Meloidogyne incognita [2]: effective

CNC(=O)Oc1cc(C)c(SC)c(C)c1 [Methiocarb]
Efficacy (%) ([7]; 0.01 mg a.i./seed): 3.8% | Efficacy (%) ([7]; 0.03 mg a.i./seed): 3.8% | Efficacy (%) ([7]; 0.1 mg a.i./seed): 1.9% | germination of treated seeds ([7]; 0.3 mg /seed): only 1 seed out of 6 germinated | Efficacy (%) ([7]; 0.3 mg a.i./seed): 0% | germination of treated seeds ([7]; 1 mg a.i./seed): did not germinate | average rating (gall rating, score 0.1-7) ([7]; 0.1 mg /seed): 4.3 | average rating (gall rating, score 0.1-7) ([7]; 0.3 mg /seed, only one germinated plant): 4.5

CNC(=O)O/N=C(\SC)C(=O)N(C)C [Oxamyl]
Efficacy (%) at the two-week exposure ([6]; 0.03 mg a.i./seed): 7.1% | Efficacy (%) at the four-week exposure ([6]; 0.03 mg a.i./seed): 0% | Efficacy (%) at the two-week exposure ([6]; 0.1 mg a.i./seed): 0% | Efficacy (%) at the four-week exposure ([6]; 0.1 mg a.i./seed): 2.9% | Efficacy (%) at the two-week exposure ([6]; 0.3 mg a.i./seed): 0% | Efficacy (%) at the four-week exposure ([6]; 0.3 mg a.i./seed): 0% | Efficacy (%) at the two-week exposure ([6]; 1 mg a.i./seed): 0% | Efficacy (%) at the four-week exposure ([6]; 1 mg a.i./seed): 4.5% | average rating (gall rating, score 0.1-7) [6, 10]: 3.5 | average rating (gall rating, score 0.1-7) [6, 11]: 2.8

CCOP(=S)(OCC)SCSCC [Phorate]
Efficacy (%) [1, 8]: 22.1% | Efficacy (%) ([1]; tomato seeds, 0.1 mg a.i./seed): 2.2% | Efficacy (%) ([1]; tomato seeds, 0.3 mg a.i./seed): 2.2% | Efficacy (%) ([1]; tomato seeds, 1 mg a.i./seed): 5.8% | average rating (gall rating, score 0.1-7) ([1]; 1 mg /seed): 4.3

CCN(CC)C(=O)C(Cl)=C(C)OP(=O)(OC)OC [Phosphamidon]
Efficacy (%) [4, 9]: 0% | Efficacy (%) [4, 8]: 2.0% | Efficacy (%) ([4]; tomato seeds, 0.1 mg a.i./seed): 0% | Efficacy (%) ([4]; tomato seeds, 0.3 mg a.i./seed): 0% | Efficacy (%) ([4]; tomato seeds, 1 mg a.i./seed): 0% | average rating (gall rating, score 0.1-7) ([4]; 1 mg /seed): 4.1

CCOP(=S)(OCC)SCSC(C)(C)C [Terbufos]
Efficacy (%) [4, 9]: 0% | Efficacy (%) [4, 8]: 0% | Efficacy (%) ([4]; tomato seeds, 0.1 mg a.i./seed): 0% | Efficacy (%) ([4]; tomato seeds, 0.3 mg a.i./seed): 0% | Efficacy (%) ([4]; tomato seeds, 1 mg a.i./seed): 0% | average rating (gall rating, score 0.1-7) ([4]; 1 mg /seed): 4.1

CS/C(C)=N\OC(=O)N(C)SN(C)C(=O)O/N=C(\C)SC [Thiodicarb]
Efficacy (%) ([7]; 0.03 mg a.i./seed): 0% | Efficacy (%) ([7]; 0.1 mg a.i./seed): 0% | Efficacy (%) ([7]; 0.3 mg a.i./seed): 0% | Efficacy (%) ([7]; 1 mg a.i./seed): 1.9% | average rating (gall rating, score 0.1-7) ([7]; 1 mg a.i./seed): 4.3
